Reference: patent publication US9296692B2, “Use of indolyl and indolinyl hydroxamates for treating heart failure of neuronal injury” (TAIPEI MEDICAL UNIVERSITY, priority 2011, dated 2016)
Several values for one entry are separate records, joined by “and”; a condition that tells them apart may be missing. Equal values may be shown once.

Tests used:
MCAO rats = assay: Infarction volume (TTC staining) in middle cerebral artery occlusion (MCAO) rats; assay type: in vivo; conditions: 30 mg/Kg intravenous, N=5 per group, 3 days
Method: (§1) In this example, effects of compounds of this invention were varified using ischematic stroke animal model.
(§2) The bilateral common carotid arteries were isolated through a neck incision and occluded with aneurysm clips. […] After 60 minutes, rats were re-anesthetized, the carotid clips were removed, and the neck incision was closed. The rats were returned to their home cage after fully recovered from anesthesia. The sham surgery is similar to the MCAO surgery, which included the step of opening the dura, yet without the steps of isolating, clipping, or coagulating neither the MCA nor carotid vessel.
Compound 1 was dissolved in 5% ethanol, 35% polyethylene glycol and 60% normal saline at a concentration of 15 mg/ml. […]
Medicaments prepared in accordance with steps described in Example 4.2 were given to the 3 groups of MCAO rats of Example 4.1 (N=5, for each group), and the infraction area of these animals were then stained and estimated by similar steps described in Examples 3.4 and 3.5, and results are illustrated in FIGS. 7A and 7B. […] In another example, after induction of MACO, rats were infused with compound 1 at 30 min, 2 hrs, 4 hrs, and 24 hrs, respectively; and the infarction volume was calculated 3 days after MCAO.

TBI rats = assay: Skilled forelimb reaching task in TBI rats; assay type: in vivo, Sprague-Dawley rats; conditions: 30 mg/Kg intravenous at 0-7 days after TBI
Excerpt: Adult male Sprague-Dawley rats (each weighted about 250-300 g, and were purchased from BioLASCO Taiwan Co., Ltd) were used in this study. The rats were randomly allocated into three groups: (i) TBI+test Compound (e.g., Compound 1 or valproic acid (VPA)), (ii) TBI+VEH (i.e., vehicle-treated TBI rats), and (iii) Sham (sham-operated control). They were housed in an animal room under temperature control (24-25) and 12:12 light-dark cycle. Standard laboratory rat chow and tap water were available ad libitum. All animal experiments were carried out in accordance with the guidelines established by the Institutional Animal Care and Utilization Committee of the Taipei Medical University (Taipei, Taiwan, R.O.C.).
Surgical anesthesia was induced by ketamine (90 mg/kg body weight) and xylazine (10 mg/kg body weight), which were administered intraperitoneally (ip). Following anesthesia, the animals were secured in a stereotaxic frame and ventilated mechanically. A cortical contusion was produced on the exposed cortex using a controlled impactor device TBI-0200 TBI Model system (Precision Systems and Instrumentation). […]
All test animals were trained to criterion on the skilled forelimb reaching task. […] During the initial days of training, limb preference was determined and placement of pellets was adjusted to favor the use of the preferred forelimb. […]

[1] = tested on: cAMP response element-binding protein (CREB); assay: Western blot analysis of CREB in brain of MCAO rats; assay type: in vivo; conditions: 30 mg/Kg intravenous, RA, LA, RP, LP brain areas
Method: as §1, §2
Compound 1 was dissolved in 5% ethanol, 35% polyethylene glycol and 60% normal saline at a concentration of 15 mg/ml. All test animals received intravenous injection of either compound 1 (30 mg/Kg), valproic acid (VPA, 30 mg/kg) or vehicle (5% ethanol, 35% polyethylene glycol and 60% normal saline) at 0-7 days after MCAO.
Collected protein samples were mixed with Laemli sample buffer. […] The Immunoblottingquantification was fulfilled via Quantity OneTMsoftware (Bio-Rad).
Level of CREB phosphorylaiton was measured by western blot ananlysis in accordance with steps described in Example 4.3. […]

heart failure (HF) rats = assay: Echocardiography in isoproterenol-induced heart failure (HF) rats; assay type: in vivo, Wistar rats
Method: Adult male Wistar rats (each weighted about 240-270 g, and were purchased from BioLASCO Taiwan Co., Ltd) were used in this study. […] Heart failure (HF) rats received one subcutaneous injection of isoproterenol at a dosage of 100 mg/Kg. They were housed in an animal room under temperature control (24-25° C.) and 12:12 light-dark cycle. Standard laboratory rat chow and tap water were available ad libitum. […] A midline thoracotomy was then performed, and the heart was removed, weighed, and dissected from each rat for further analysis. Echocardiograms were performed before the animals were euthanized, using HP Sonos 5500 system with a 15-6L probe (6 to 15 MHz, SONOS 5500, Agilent Technologies, Palo Alto, Calif.) or Vivid I ultrasound cardiovascular system (GE Healthcare, Haifa, Israel). LV end-diastolic diameter (LVEDD), LV end-systolic diameter (LVESD), and wall thickness were measured from M-mode tracings. The LV fractional shortening percentage was calculated as ([LVEDD-LVESD]/LVEDD)×100. The LV ejection fraction was calculated by Techholz's formula. All quantitative data are expressed as the mean±S.E.M, and un-paired T test was used to compare the differences between groups.

[2] = HF rats, after treatment, 100 mg/kg oral gavage once daily for 7 days, mean±S.E.M
[3] = HF rats, before treatment (baseline of the group), n = 7, mean±S.E.M

## CCCC(CCC)C(=O)O [VPA, valproic acid]
MCAO rats
  Infarction volume, FIG. 7A: significant reduction of infarction volume
TBI rats
  Behaviour function deficits (skilled forelimb reaching task), FIG. 6: significantly improve the behaviour function deficits caused by TBI
[1]
  Up-regulation of CREB (p-CREB and t-CREB), FIG. 8: up-regulation of cAMP response element-binding protein (CREB)

## O=C(/C=C/c1ccc2c(ccn2S(=O)(=O)c2ccccc2)c1)NO [compound 1, 3-(1-benzensulfonyl-1H-indol-5-yl)-N-hydroxy-acrylamide]
Heart failure (HF) rats; [2]
  Fraction shortening: 47 ± 3 %
  IVSd: 1.3 ± 0.1 mm
  LVEDd: 4.6 ± 0.2 mm
  LVESd: 2.4 ± 0.2 mm
Heart failure (HF) rats; HF rats, after treatment, 100 mg/kg oral gavage once daily for 7 days, mean±S.E.M, 100 mg/kg
  Ejection fraction: 81% and 81 ± 3 %
Heart failure (HF) rats; [3]
  Ejection fraction: 68 ± 2%
  Fraction shortening: 38 ± 3%
  IVSd: 1.4 ± 0.1 mm
  LVEDd: 5.4 ± 0.4 mm
  LVESd: 3.4 ± 0.3 mm

## NNc1nncc2ccccc12 [hydralazine, reference compound]
Heart failure (HF) rats; HF rats (isoproterenol 150 mg/kg s.c.), after 10 mg/kg i.p. once daily for 7 days, data not shown
  Ejection fraction: 76±10%
Heart failure (HF) rats; HF rats (isoproterenol 150 mg/kg s.c.), starting value that the ejection fraction increased from, data not shown
  Ejection fraction: 59±4%
